EC50 data for 13 molecules are collected here from patent publication US9499550B2 (BRISTOL-MYERS SQUIBB COMPANY, priority 2012, dated 2016).

For assay [1], the system named is HCV genotype 1a (H77 strain) replicon in HUH-7 cells. The experiment in a line: HCV replicon luciferase reporter assay, genotype 1a. The assay is classed as cell-based. The conditions noted are these: Hepatitis C virus, Huh-7, 72 h, HCV genotype 1a replicon luciferase, 3 days incubation, read-out: LE_1a (EC50, range). Summed up:
(§1)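 Replicon inhibition for both genotypes was measured as Renilla luciferase signal (EnduRen, 7.5 μM final, 2 h) after 3-day, 37° C exposure of replicon-bearing HUH-7 cells in 4% FCS DMEM, 0.5% DMSO. The 1b construct carries S1179I; the 1a H77 construct carries P1496L and S2204I. Twenty-point, 3-fold dilutions were fitted four-parametrically for EC50, and CC50 was taken from multiplexed Cell Titer-Blue.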

The test system of assay [2] is HCV genotype 1b (Con1) replicon in HUH-7 cells. Put plainly: HCV replicon luciferase reporter assay, genotype 1b. As to conditions: Hepatitis C virus, Huh-7, 72 h, HCV genotype 1b replicon luciferase, 3 days incubation, read-out: LE_1b (EC50, range). The assay is classed as cell-based. In a few lines:
as §1

On to `CC[C@@H]1C[C@H](C)CC/C=C\[C@@H]2C[C@@]2(C(=O)NS(=O)(=O)C2(C)CC2)NC(=O)[C@@H]2C[C@@H](Oc3ncc(OC)c4ccccc34)CN2C(=O)[C@H]1NC(=O)OC(C)(C)C(C)(F)F` [Compound 5437, 3,3-difluoro-2-methylbutan-2-yl((2R,6S,7R,9R,13aS,14aR,16aS,Z)-7-ethyl-2-((4-methoxyisoquinolin-1-yl)oxy)-9-methyl-14a-(((1-methylcyclopropyl)sulfonyl)carbamoyl)-5,16-dioxo-1,2,3,5,6,7,8,9,10,11,13a,14,14a,15,16,16a-hexadecahydrocyclopropa[e]pyrrolo[1,2-a][1,4]diazacyclopentadecin-6-yl)carbamate], for which the 50% effective concentration (EC50) in assay [1] lay within 1.01 to 5 nM; in assay [2], 0.1 to 0.5 nM.
For the molecule `CC[C@@H]1C[C@H](C)CC/C=C\[C@@H]2C[C@@]2(C(=O)NS(=O)(=O)C2CC2)NC(=O)[C@@H]2C[C@@H](Oc3ncc(OC)c4ccccc34)CN2C(=O)[C@H]1NC(=O)OC(C)(C)C(C)(F)F` [Compound 5439, 3,3-difluoro-2-methylbutan-2-yl((2R,6S,7R,9R,13aS,14aR,16aS,Z)-14a-((cyclopropylsulfonyl)carbamoyl)-7-ethyl-2-((4-methoxyisoquinolin-1-yl)oxy)-9-methyl-5,16-dioxo-1,2,3,5,6,7,8,9,10,11,13a,14,14a,15,16,16a-hexadecahydrocyclopropa[e]pyrrolo[1,2-a][1,4]diazacyclopentadecin-6-yl)carbamate], the EC50 lay in the range of 0.51 to 1 nM in assay [1] and 0.1 to 0.5 nM in assay [2].
Take `CC[C@@H]1C[C@H](C)CC/C=C\[C@@H]2C[C@@]2(C(=O)NS(=O)(=O)C2(CF)CC2)NC(=O)[C@@H]2C[C@@H](Oc3ncc(N4CCOCC4)c4ccccc34)CN2C(=O)[C@H]1NC(=O)OC(C)(C)C` [Compound 5441, tert-butyl ((2R,6S,7R,9R,13aS,14aR,16aS,Z)-7-ethyl-14a-(((1-(fluoromethyl)cyclopropyl)sulfonyl)carbamoyl)-9-methyl-2-((4-morpholinoisoquinolin-1-yl)oxy)-5,16-dioxo-1,2,3,5,6,7,8,9,10,11,13a,14,14a,15,16,16a-hexadecahydrocyclopropa[e]pyrrolo[1,2-a][1,4]diazacyclopentadecin-6-yl)carbamate]: the EC50 in assay [1] and in assay [2] was 1.01 to 5 nM throughout.
Turning to `C[C@@H]1CC/C=C\[C@@H]2C[C@@]2(C(=O)NS(=O)(=O)C2(CF)CC2)NC(=O)[C@@H]2C[C@@H](Oc3ncc(N4CCOCC4)c4ccccc34)CN2C(=O)[C@@H](NC(=O)OC(C)(C)C)[C@H](C)C1` [Compound 5443, tert-butyl ((2R,6S,7R,9R,13aS,14aR,16aS,Z)-14a-(((1-(fluoromethyl)cyclopropyl)sulfonyl)carbamoyl)-7,9-dimethyl-2-((4-morpholinoisoquinolin-1-yl)oxy)-5,16-dioxo-1,2,3,5,6,7,8,9,10,11,13a,14,14a,15,16,16a-hexadecahydrocyclopropa[e]pyrrolo[1,2-a][1,4]diazacyclopentadecin-6-yl)carbamate], the values for the EC50 in assay [1] and in assay [2] were 1.01 to 5 nM and 0.51 to 1 nM, respectively.
In the same order, the values of `CC[C@@H]1C[C@H](C)CC/C=C\[C@@H]2C[C@@]2(C(=O)NS(=O)(=O)C2(CF)CC2)NC(=O)[C@@H]2C[C@@H](Oc3ncc(N4CCOCC4)c4ccccc34)CN2C(=O)[C@H]1NC(=O)OC(C)(C)C(F)(F)F` [Compound 5445, 1,1,1-trifluoro-2-methylpropan-2-yl((2R,6S,7R,9R,13aS,14aR,16aS,Z)-7-ethyl-14a-(((1-(fluoromethyl)cyclopropyl)sulfonyl)carbamoyl)-9-methyl-2-((4-morpholinoisoquinolin-1-yl)oxy)-5,16-dioxo-1,2,3,5,6,7,8,9,10,11,13a,14,14a,15,16,16a-hexadecahydrocyclopropa[e]pyrrolo[1,2-a][1,4]diazacyclopentadecin-6-yl)carbamate] are 1.01 to 5 nM and 1.01 to 5 nM.
The corresponding values for `CC[C@@H]1C[C@H](C)CC/C=C\[C@@H]2C[C@@]2(C(=O)NS(=O)(=O)C2(CF)CC2)NC(=O)[C@@H]2C[C@@H](Oc3ncc(N4CCOCC4)c4ccccc34)CN2C(=O)[C@H]1NC(=O)OC(C)(C)C(C)(F)F` [Compound 5447, 3,3-difluoro-2-methylbutan-2-yl((2R,6S,7R,9R,13aS,14aR,16aS,Z)-7-ethyl-14a-(((1-(fluoromethyl)cyclopropyl)sulfonyl)carbamoyl)-9-methyl-2-((4-morpholinoisoquinolin-1-yl)oxy)-5,16-dioxo-1,2,3,5,6,7,8,9,10,11,13a,14,14a,15,16,16a-hexadecahydrocyclopropa[e]pyrrolo[1,2-a][1,4]diazacyclopentadecin-6-yl)carbamate] are 1.01 to 5 nM and 1.01 to 5 nM.
Consider `C[C@@H]1CC/C=C\[C@@H]2C[C@@]2(C(=O)NS(=O)(=O)C2(CF)CC2)NC(=O)[C@@H]2C[C@@H](Oc3ncc(N4CCOCC4)c4ccccc34)CN2C(=O)[C@@H](NC(=O)OC(C)(C)C(F)(F)F)[C@H](C)C1` [Compound 5449, 1,1,1-trifluoro-2-methylpropan-2-yl((2R,6S,7R,9R,13aS,14aR,16aS,Z)-14a-(((1-(fluoromethyl)cyclopropyl)sulfonyl)carbamoyl)-7,9-dimethyl-2-((4-morpholinoisoquinolin-1-yl)oxy)-5,16-dioxo-1,2,3,5,6,7,8,9,10,11,13a,14,14a,15,16,16a-hexadecahydrocyclopropa[e]pyrrolo[1,2-a][1,4]diazacyclopentadecin-6-yl)carbamate], for which the EC50 lay in the range of 1.01 to 5 nM in assay [1] and 0.51 to 1 nM in assay [2].
The corresponding values for `C[C@@H]1CC/C=C\[C@@H]2C[C@@]2(C(=O)NS(=O)(=O)C2(CF)CC2)NC(=O)[C@@H]2C[C@@H](Oc3ncc(N4CCOCC4)c4ccccc34)CN2C(=O)[C@@H](NC(=O)OC(C)(C)C(C)(F)F)[C@H](C)C1` [Compound 5451, 3,3-difluoro-2-methylbutan-2-yl((2R,6S,7R,9R,13aS,14aR,16aS,Z)-14a-(((1-(fluoromethyl)cyclopropyl)sulfonyl)carbamoyl)-7,9-dimethyl-2-((4-morpholinoisoquinolin-1-yl)oxy)-5,16-dioxo-1,2,3,5,6,7,8,9,10,11,13a,14,14a,15,16,16a-hexadecahydrocyclopropa[e]pyrrolo[1,2-a][1,4]diazacyclopentadecin-6-yl)carbamate] are 1.01 to 5 nM and 1.01 to 5 nM.
As for `[2H]C([2H])([2H])C(OC(=O)N[C@@H]1C(=O)N2C[C@H](Oc3ncc(OC)c4ccc(F)cc34)C[C@H]2C(=O)N[C@]2(C(=O)NS(=O)(=O)C3(C)CC3)C[C@H]2/C=C\CC[C@@H](C)C[C@H]1CC)(C([2H])([2H])[2H])C(F)(F)F` [Compound 5453], the EC50 in assay [1] was 1.01 to 5 nM; in assay [2], 0.51 to 1 nM.
The corresponding values for `CC[C@@H]1C[C@H](C)CC/C=C\[C@@H]2C[C@@]2(C(=O)NS(=O)(=O)C2(C)CC2)NC(=O)[C@@H]2C[C@@H](Oc3ncc(OC)c4ccc(F)cc34)CN2C(=O)[C@H]1NC(=O)OC(C)(C)C(C)(F)F` [Compound 5455, 3,3-difluoro-2-methylbutan-2-yl((2R,6S,7R,9R,13aS,14aR,16aS,Z)-7-ethyl-2-((7-fluoro-4-methoxyisoquinolin-1-yl)oxy)-9-methyl-14a-(((1-methylcyclopropyl)sulfonyl)carbamoyl)-5,16-dioxo-1,2,3,5,6,7,8,9,10,11,13a,14,14a,15,16,16a-hexadecahydrocyclopropa[e]pyrrolo[1,2-a][1,4]diazacyclopentadecin-6-yl)carbamate] are 1.01 to 5 nM and 0.1 to 0.5 nM.
In the same order, the values of `CC[C@@H]1C[C@H](C)CC/C=C\[C@@H]2C[C@@]2(C(=O)NS(=O)(=O)C2(C)CC2)NC(=O)[C@@H]2C[C@@H](Oc3ncc(N4CCOCC4)c4ccccc34)CN2C(=O)[C@H]1NC(=O)OC(C)(C)C(C)(F)F` [Compound 5457, 3,3-difluoro-2-methylbutan-2-yl((2R,6S,7R,9R,13aS,14aR,16aS,Z)-7-ethyl-9-methyl-14a-(((1-methylcyclopropyl)sulfonyl)carbamoyl)-2-((4-morpholinoisoquinolin-1-yl)oxy)-5,16-dioxo-1,2,3,5,6,7,8,9,10,11,13a,14,14a,15,16,16a-hexadecahydrocyclopropa[e]pyrrolo[1,2-a][1,4]diazacyclopentadecin-6-yl)carbamate] are 1.01 to 5 nM and 0.51 to 1 nM.
In the same order, the values of `C[C@@H]1CC/C=C\[C@@H]2C[C@@]2(C(=O)NS(=O)(=O)C2(C)CC2)NC(=O)[C@@H]2C[C@@H](Oc3ncc(N4CCOCC4)c4ccccc34)CN2C(=O)[C@@H](NC(=O)OC(C)(C)C(C)(F)F)[C@H](C)C1` [Compound 5459, 3,3-difluoro-2-methylbutan-2-yl((2R,6S,7R,9R,13aS,14aR,16aS,Z)-7,9-dimethyl-14a-(((1-methylcyclopropyl)sulfonyl)carbamoyl)-2-((4-morpholinoisoquinolin-1-yl)oxy)-5,16-dioxo-1,2,3,5,6,7,8,9,10,11,13a,14,14a,15,16,16a-hexadecahydrocyclopropa[e]pyrrolo[1,2-a][1,4]diazacyclopentadecin-6-yl)carbamate] are 1.01 to 5 nM and 1.01 to 5 nM.
For the molecule `CC[C@@H]1C[C@H](C)CC/C=C\[C@@H]2C[C@@]2(C(=O)NS(=O)(=O)C2(CF)CC2)NC(=O)[C@@H]2C[C@@H](Oc3nccc4c5c(ccc34)OCCO5)CN2C(=O)[C@H]1NC(=O)OC(C)(C)C(C)(F)F` [Compound 5461, 3,3-difluoro-2-methylbutan-2-yl((2R,6S,7R,9R,13aS,14aR,16aS,Z)-2-((2,3-dihydro-[1,4]dioxino[2,3-f]isoquinolin-7-yl)oxy)-7-ethyl-14a-(((1-(fluoromethyl)cyclopropyl)sulfonyl)carbamoyl)-9-methyl-5,16-dioxo-1,2,3,5,6,7,8,9,10,11,13a,14,14a,15,16,16a-hexadecahydrocyclopropa[e]pyrrolo[1,2-a][1,4]diazacyclopentadecin-6-yl)carbamate], the concentration for a half-maximal effect (EC50) in assay [1] and in assay [2] was 1.01 to 5 nM in each case.
